In PubChem BioAssay (NCI):
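Compound exposure: 48 hours, 5 concentrations, 96-well plates. At the GI50, growth is halved. TGI denotes the concentration required for complete inhibition of growth.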

Experiments:
Test in all cases: NCI tumour cell line growth inhibition, 48 h
786-0 renal = test system: 786-0 renal
A549 NSCLC = test system: A549 NSCLC
ACHN renal = test system: ACHN renal
CAKI-1 renal = test system: CAKI-1 renal
CCRF-CEM leukemia = test system: CCRF-CEM leukemia
COLO 205 colon = test system: COLO 205 colon
DLD-1 colon = test system: DLD-1 colon
DMS 114 small cell lung = test system: DMS 114 small cell lung
EKVX NSCLC = test system: EKVX NSCLC
HCC-2998 colon = test system: HCC-2998 colon
HCT-116 colon = test system: HCT-116 colon
HCT-15 colon = test system: HCT-15 colon
HL-60(TB) leukemia = test system: HL-60(TB) leukemia
HOP-18 NSCLC = test system: HOP-18 NSCLC
HOP-62 NSCLC = test system: HOP-62 NSCLC
HOP-92 NSCLC = test system: HOP-92 NSCLC
HT29 colon = test system: HT29 colon
IGROV1 ovarian = test system: IGROV1 ovarian
K-562 leukemia = test system: K-562 leukemia
KM12 colon = test system: KM12 colon
KM20L2 colon = test system: KM20L2 colon
LOX IMVI melanoma = test system: LOX IMVI melanoma
LXFL 529 NSCLC = test system: LXFL 529 NSCLC
M14 melanoma = test system: M14 melanoma
MALME-3M melanoma = test system: MALME-3M melanoma
MOLT-4 leukemia = test system: MOLT-4 leukemia
NCI-H226 lung = test system: NCI-H226 lung
NCI-H23 lung = test system: NCI-H23 lung
NCI-H460 lung = test system: NCI-H460 lung
OVCAR-3 ovarian = test system: OVCAR-3 ovarian
OVCAR-4 ovarian = test system: OVCAR-4 ovarian
OVCAR-5 ovarian = test system: OVCAR-5 ovarian
OVCAR-8 ovarian = test system: OVCAR-8 ovarian
RXF 393 renal = test system: RXF 393 renal
RXF-631 renal = test system: RXF-631 renal
SF-268 CNS = test system: SF-268 CNS
SF-295 CNS = test system: SF-295 CNS
SF-539 CNS = test system: SF-539 CNS
SK-MEL-2 melanoma = test system: SK-MEL-2 melanoma
SK-MEL-28 melanoma = test system: SK-MEL-28 melanoma
SK-MEL-5 melanoma = test system: SK-MEL-5 melanoma
SK-OV-3 ovarian = test system: SK-OV-3 ovarian
SN12C renal = test system: SN12C renal
SNB-19 CNS = test system: SNB-19 CNS
SNB-78 CNS = test system: SNB-78 CNS
SW-620 colon = test system: SW-620 colon
TK-10 renal = test system: TK-10 renal
U251 CNS = test system: U251 CNS
UACC-257 melanoma = test system: UACC-257 melanoma
UACC-62 melanoma = test system: UACC-62 melanoma
UO-31 renal = test system: UO-31 renal
A498 renal = test system: A498 renal
DMS 273 small cell lung = test system: DMS 273 small cell lung
M19-MEL melanoma = test system: M19-MEL melanoma
NCI-H522 lung = test system: NCI-H522 lung
RPMI-8226 leukemia = test system: RPMI-8226 leukemia
SNB-75 CNS = test system: SNB-75 CNS
XF 498 CNS = test system: XF 498 CNS

CCCCN(CCCC)C(=O)C(=O)C(C(=O)c1ccc(OC)cc1)c1ccc(OC)cc1 (stereo unspecified)
TGI (786-0 renal): > 100 µM
TGI (A549 NSCLC): > 100 µM
TGI (ACHN renal): > 100 µM
TGI (CAKI-1 renal): > 100 µM
TGI (CCRF-CEM leukemia): > 100 µM
TGI (COLO 205 colon): > 100 µM
TGI (DLD-1 colon): > 100 µM
TGI (DMS 114 small cell lung): > 100 µM
TGI (EKVX NSCLC): > 100 µM
TGI (HCC-2998 colon): > 100 µM
TGI (HCT-116 colon): > 100 µM
TGI (HCT-15 colon): > 100 µM
TGI (HL-60(TB) leukemia): > 100 µM
TGI (HOP-18 NSCLC): > 100 µM
TGI (HOP-62 NSCLC): > 100 µM
TGI (HOP-92 NSCLC): > 100 µM
TGI (HT29 colon): > 100 µM
TGI (IGROV1 ovarian): > 100 µM
TGI (K-562 leukemia): > 100 µM
TGI (KM12 colon): > 100 µM
TGI (KM20L2 colon): > 100 µM
TGI (LOX IMVI melanoma): > 100 µM
TGI (LXFL 529 NSCLC): > 100 µM
TGI (M14 melanoma): > 100 µM
TGI (MALME-3M melanoma): > 100 µM
TGI (MOLT-4 leukemia): > 100 µM
TGI (NCI-H226 lung): > 100 µM
TGI (NCI-H23 lung): > 100 µM
TGI (NCI-H460 lung): > 100 µM
TGI (OVCAR-3 ovarian): > 100 µM
TGI (OVCAR-4 ovarian): > 100 µM
TGI (OVCAR-5 ovarian): > 100 µM
TGI (OVCAR-8 ovarian): > 100 µM
TGI (RXF 393 renal): > 100 µM
TGI (RXF-631 renal): > 100 µM
TGI (SF-268 CNS): > 100 µM
TGI (SF-295 CNS): > 100 µM
TGI (SF-539 CNS): > 100 µM
TGI (SK-MEL-2 melanoma): > 100 µM
TGI (SK-MEL-28 melanoma): > 100 µM
TGI (SK-MEL-5 melanoma): > 100 µM
TGI (SK-OV-3 ovarian): > 100 µM
TGI (SN12C renal): > 100 µM
TGI (SNB-19 CNS): > 100 µM
TGI (SNB-78 CNS): > 100 µM
TGI (SW-620 colon): > 100 µM
TGI (TK-10 renal): > 100 µM
TGI (U251 CNS): > 100 µM
TGI (UACC-257 melanoma): > 100 µM
TGI (UACC-62 melanoma): > 100 µM
TGI (UO-31 renal): > 100 µM

O=c1ccc2ccccc2cc1[O-].O=c1ccc2ccccc2cc1[O-].[O]=[U+2]=[O]
GI50 (786-0 renal): 15 µM
TGI (786-0 renal): 40.8 µM
GI50 (A498 renal): 18.6 µM
TGI (A498 renal): 43.1 µM
GI50 (A549 NSCLC): 4.78 µM
TGI (A549 NSCLC): 56 µM
GI50 (ACHN renal): 14.2 µM
TGI (ACHN renal): 33.1 µM
GI50 (CAKI-1 renal): 9.44 µM
TGI (CAKI-1 renal): 51.9 µM
GI50 (CCRF-CEM leukemia): 6.14 µM
TGI (CCRF-CEM leukemia): > 100 µM
GI50 (COLO 205 colon): 25.3 µM
TGI (COLO 205 colon): 71.7 µM
GI50 (DLD-1 colon): 19.5 µM
TGI (DLD-1 colon): > 100 µM
GI50 (DMS 114 small cell lung): 19.9 µM
TGI (DMS 114 small cell lung): 55.3 µM
GI50 (DMS 273 small cell lung): 6.71 µM
TGI (DMS 273 small cell lung): > 100 µM
GI50 (EKVX NSCLC): 10.4 µM
TGI (EKVX NSCLC): 55.7 µM
GI50 (HCT-15 colon): 17.6 µM
TGI (HCT-15 colon): > 100 µM
GI50 (HL-60(TB) leukemia): 14 µM
TGI (HL-60(TB) leukemia): 52.3 µM
GI50 (HOP-62 NSCLC): 23.9 µM
TGI (HOP-62 NSCLC): 53.8 µM
GI50 (HOP-92 NSCLC): 28.1 µM
TGI (HOP-92 NSCLC): 72.1 µM
GI50 (HT29 colon): 2.51 µM
TGI (HT29 colon): 6.97 µM
GI50 (IGROV1 ovarian): 23.4 µM
TGI (IGROV1 ovarian): 84.5 µM
GI50 (K-562 leukemia): 6.75 µM
TGI (K-562 leukemia): > 100 µM
GI50 (KM12 colon): 7.15 µM
TGI (KM12 colon): 69.7 µM
GI50 (KM20L2 colon): 4.5 µM
TGI (KM20L2 colon): 90.1 µM
GI50 (LOX IMVI melanoma): 14.1 µM
TGI (LOX IMVI melanoma): > 100 µM
GI50 (LXFL 529 NSCLC): 16.8 µM
TGI (LXFL 529 NSCLC): 51.6 µM
GI50 (M14 melanoma): 16.9 µM
TGI (M14 melanoma): 54.5 µM
GI50 (M19-MEL melanoma): 24.8 µM
TGI (M19-MEL melanoma): 96.7 µM
GI50 (MALME-3M melanoma): 5.72 µM
TGI (MALME-3M melanoma): 26.3 µM
GI50 (MOLT-4 leukemia): 4.71 µM
TGI (MOLT-4 leukemia): 46.2 µM
GI50 (NCI-H23 lung): 27.2 µM
TGI (NCI-H23 lung): 90.7 µM
GI50 (NCI-H460 lung): 13.6 µM
TGI (NCI-H460 lung): > 100 µM
GI50 (NCI-H522 lung): 11.6 µM
TGI (NCI-H522 lung): 56 µM
GI50 (OVCAR-3 ovarian): 8.28 µM
TGI (OVCAR-3 ovarian): 50.1 µM
GI50 (OVCAR-4 ovarian): 14.7 µM
TGI (OVCAR-4 ovarian): 55.1 µM
GI50 (OVCAR-5 ovarian): 30.1 µM
TGI (OVCAR-5 ovarian): > 100 µM
GI50 (OVCAR-8 ovarian): 8.83 µM
TGI (OVCAR-8 ovarian): 59.9 µM
GI50 (RPMI-8226 leukemia): 17 µM
TGI (RPMI-8226 leukemia): > 100 µM
GI50 (RXF 393 renal): 14.4 µM
TGI (RXF 393 renal): 40 µM
GI50 (RXF-631 renal): 11.1 µM
TGI (RXF-631 renal): 41.6 µM
GI50 (SF-268 CNS): 22.2 µM
TGI (SF-268 CNS): 51.8 µM
GI50 (SF-295 CNS): 17.7 µM
TGI (SF-295 CNS): 63.5 µM
GI50 (SK-MEL-2 melanoma): 11.7 µM
TGI (SK-MEL-2 melanoma): 38.1 µM
GI50 (SK-MEL-28 melanoma): 15.3 µM
TGI (SK-MEL-28 melanoma): 47.5 µM
GI50 (SK-MEL-5 melanoma): 4.99 µM
TGI (SK-MEL-5 melanoma): 29.4 µM
GI50 (SK-OV-3 ovarian): 30.2 µM
TGI (SK-OV-3 ovarian): 71.2 µM
GI50 (SN12C renal): 23.5 µM
TGI (SN12C renal): 64.1 µM
GI50 (SNB-75 CNS): 14 µM
TGI (SNB-75 CNS): 32.8 µM
GI50 (SW-620 colon): 7.76 µM
TGI (SW-620 colon): 39.7 µM
GI50 (TK-10 renal): 17 µM
TGI (TK-10 renal): 66.3 µM
GI50 (U251 CNS): 16.5 µM
TGI (U251 CNS): 46.5 µM
GI50 (UACC-257 melanoma): 6.19 µM
TGI (UACC-257 melanoma): 44.3 µM
GI50 (UACC-62 melanoma): 16.9 µM
TGI (UACC-62 melanoma): 39.6 µM
GI50 (XF 498 CNS): 19.5 µM
TGI (XF 498 CNS): 40 µM
